Data: patent US20210317134A1, “UBIQUITIN-SPECIFIC-PROCESSING PROTEASE 7 (USP7) MODULATORS AND USES THEREOF” (RAPT THERAPEUTICS, INC., priority 2019, published 2021)

target: USP7 (Homo sapiens, UniProt Q93009); test: USP7 inhibitory potency (Table 1); assay type: biochemical
Sequence (Q93009 whole entry): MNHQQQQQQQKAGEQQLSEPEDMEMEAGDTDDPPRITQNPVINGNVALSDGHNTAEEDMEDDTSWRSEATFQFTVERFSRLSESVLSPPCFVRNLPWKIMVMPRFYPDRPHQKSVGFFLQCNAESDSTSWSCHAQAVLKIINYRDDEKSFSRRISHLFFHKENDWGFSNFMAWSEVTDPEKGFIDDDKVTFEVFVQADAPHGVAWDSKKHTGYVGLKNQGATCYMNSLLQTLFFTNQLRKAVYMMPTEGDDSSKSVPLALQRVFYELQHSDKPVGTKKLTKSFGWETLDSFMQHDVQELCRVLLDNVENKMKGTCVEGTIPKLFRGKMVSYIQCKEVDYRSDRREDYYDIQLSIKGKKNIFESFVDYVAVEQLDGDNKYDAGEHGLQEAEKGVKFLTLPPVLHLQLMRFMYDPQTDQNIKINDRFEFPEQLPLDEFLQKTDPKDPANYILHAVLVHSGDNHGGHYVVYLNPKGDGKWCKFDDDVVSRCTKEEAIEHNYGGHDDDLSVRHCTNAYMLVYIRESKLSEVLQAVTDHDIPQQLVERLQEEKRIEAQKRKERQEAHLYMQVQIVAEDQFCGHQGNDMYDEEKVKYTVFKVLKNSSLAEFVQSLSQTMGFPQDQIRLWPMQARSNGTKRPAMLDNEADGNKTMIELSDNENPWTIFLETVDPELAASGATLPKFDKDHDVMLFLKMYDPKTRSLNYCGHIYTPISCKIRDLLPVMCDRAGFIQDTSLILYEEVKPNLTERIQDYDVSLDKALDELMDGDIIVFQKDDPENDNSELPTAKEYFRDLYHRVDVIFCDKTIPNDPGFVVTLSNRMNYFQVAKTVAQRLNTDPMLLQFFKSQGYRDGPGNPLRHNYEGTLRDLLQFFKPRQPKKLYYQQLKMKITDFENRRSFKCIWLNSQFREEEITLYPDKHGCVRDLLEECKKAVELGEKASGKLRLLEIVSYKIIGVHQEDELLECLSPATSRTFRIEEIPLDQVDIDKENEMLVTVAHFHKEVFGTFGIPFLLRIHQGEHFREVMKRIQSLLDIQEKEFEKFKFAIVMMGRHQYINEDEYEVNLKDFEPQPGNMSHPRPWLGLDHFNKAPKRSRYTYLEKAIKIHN

Row | IC50 [nM] | Structure (SMILES)
1 | 1000 to 10000 | CS(=O)(=O)c1ccc2c(-c3cc(Cl)cc4c3O[C@@H](c3onc5c3CNCC5)C4)ccnc2c1 [(R)-3-(5-chloro-7-(7-(methylsulfonyl)quinolin-4-yl)-2,3-dihydrobenzofuran-2-yl)-4,5,6,7-tetrahydroisoxazolo[4,3-c]pyridine]
2 | < 1000 | CN1CC(=O)N(Cc2cc3nccc(-c4cc(Cl)cc5c4O[C@@H](C(=O)N4CCNCC4)C5)c3s2)C1=O [(R)-3-((7-(5-chloro-2-(piperazine-1-carbonyl)-2,3-dihydrobenzofuran-7-yl)thieno[3,2-b]pyridin-2-yl)methyl)-1-methylimidazolidine-2,4-dione]
3 | < 1000 | CN(C)[C@@H]1CCN(C(=O)[C@H]2Cc3cc(Cl)cc(-c4ccnc5ccsc45)c3O2)C1 [((R)-5-chloro-7-(thieno[3,2-b]pyridin-7-yl)-2,3-dihydrobenzofuran-2-yl)((R)-3-(dimethylamino)pyrrolidin-1-yl)methanone]
4 | < 1000 | O=C([C@H]1Cc2cc(Cl)cc(-c3ccnc4cc(CO)sc34)c2O1)N1CCC(N2CCCCC2)CC1 [(R)-[1,4′-bipiperidin]-1′-yl(5-chloro-7-(2-(hydroxymethyl)thieno[3,2-b]pyridin-7-yl)-2,3-dihydrobenzofuran-2-yl)methanone]
5 | 1000 to 10000 | O=C(C1Cc2cc(Cl)cc(-c3ccnc4[nH]ccc34)c2O1)N1CCC(O)(c2cccc3ncccc23)CC1 (centres unmarked) [(5-chloro-7-(1H-pyrrolo[2,3-b]pyridin-4-yl)-2,3-dihydrobenzofuran-2-yl)(4-hydroxy-4-(quinolin-5-yl)piperidin-1-yl)methanone]
6 | < 1000 | C[C@@H](c1cc2nccc(-c3cc(Cl)cc4c3O[C@@H](C(=O)N3CCNCC3)C4)c2s1)N1C(=O)CCC1=O [1-((S)-1-(7-((R)-5-chloro-2-(piperazine-1-carbonyl)-2,3-dihydrobenzofuran-7-yl)thieno[3,2-b]pyridin-2-yl)ethyl)pyrrolidine-2,5-dione]
7 | 1000 to 10000 | O=C(C1Cc2cc(Cl)cc(-c3ccnc4[nH]ccc34)c2O1)N1CCC(N2CCCCC2)CC1 (centres unmarked) [1,4′-bipiperidin-1′-yl(5-chloro-7-(1H-pyrrolo[2,3-b]pyridin-4-yl)-2,3-dihydrobenzofuran-2-yl)methanone]
8 | < 1000 | O=C([C@H]1Cc2cc(Cl)cc(-c3ccnc4cc(Cn5c(=O)cc[nH]c5=O)sc34)c2O1)N1CCNCC1 [(R)-3-((7-(5-chloro-2-(piperazine-1-carbonyl)-2,3-dihydrobenzofuran-7-yl)thieno[3,2-b]pyridin-2-yl)methyl)pyrimidine-2,4(1H,3H)-dione]
9 | < 1000 | O=C([C@H]1Cc2cc(Cl)cc(-c3ccnc4cc(N5C(=O)CCC5=O)ccc34)c2O1)N1CCNCC1 [(R)-1-(4-(5-chloro-2-(piperazine-1-carbonyl)-2,3-dihydrobenzofuran-7-yl)quinolin-7-yl)pyrrolidine-2,5-dione]
10 | 1000 to 10000 | O=C(C1Cc2cc(Cl)cc(-c3ccnc4[nH]ccc34)c2O1)N1CCC(O)(c2ccc(Cl)cc2)CC1 (centres unmarked) [(5-chloro-7-(1H-pyrrolo[2,3-b]pyridin-4-yl)-2,3-dihydrobenzofuran-2-yl)(4-(4-chlorophenyl)-4-hydroxypiperidin-1-yl)methanone]
11 | < 1000 | CCC(O)c1cc2nccc(-c3cc(Cl)cc4c3O[C@@H](c3onc5c3CNCC5)C4)c2s1 (stereo partly drawn) [drawing 1523, 1-(7-((R)-5-chloro-2-(4,5,6,7-tetrahydroisoxazolo[4,3-c]pyridin-3-yl)-2,3-dihydrobenzofuran-7-yl)thieno[3,2-b]pyridin-2-yl)propan-1-ol]
12 | < 1000 | CC(O)c1ccc2c(-c3cc(Cl)cc4c3O[C@@H](c3onc5c3CNCC5)C4)ccnc2c1 (stereo partly drawn) [1-(4-((R)-5-chloro-2-(4,5,6,7-tetrahydroisoxazolo[4,3-c]pyridin-3-yl)-2,3-dihydrobenzofuran-7-yl)quinolin-7-yl)ethan-1-ol]
13 | < 1000 | CCC(O)(C(=O)N(C)C)c1cc2nccc(-c3cc(Cl)cc4c3O[C@@H](C(=O)N3CCNCC3)C4)c2s1 (stereo partly drawn) [2-(7-((R)-5-chloro-2-(piperazine-1-carbonyl)-2,3-dihydrobenzofuran-7-yl)thieno[3,2-b]pyridin-2-yl)-2-hydroxy-N,N-dimethylbutanamide]
14 | 1000 to 10000 | CS(=O)(=O)NCc1ccc2c(-c3cc(Cl)cc4c3O[C@@H](c3onc5c3CNCC5)C4)ccnc2c1 [(R)-N-((4-(5-chloro-2-(4,5,6,7-tetrahydroisoxazolo[4,3-c]pyridin-3-yl)-2,3-dihydrobenzofuran-7-yl)quinolin-7-yl)methyl)methanesulfonamide]
15 | 1000 to 10000 | CCC(N)c1cc2nccc(-c3cc(Cl)cc4c3O[C@@H](c3onc5c3CNCC5)C4)c2s1 (stereo partly drawn) [1-(7-((R)-5-chloro-2-(4,5,6,7-tetrahydroisoxazolo[4,3-c]pyridin-3-yl)-2,3-dihydrobenzofuran-7-yl)thieno[3,2-b]pyridin-2-yl)propan-1-amine]
16 | 1000 to 10000 | O=C([C@@H]1Cc2cc(Cl)cc(-c3ccnc4cc(CO)sc34)c2O1)N1CCNCC1 [(S)-(5-chloro-7-(2-(hydroxymethyl)thieno[3,2-b]pyridin-7-yl)-2,3-dihydrobenzofuran-2-yl)(piperazin-1-yl)methanone]
17 | < 1000 | O=C([C@H]1Cc2cc(Cl)cc(-c3ccnc4cc(CN5C(=O)CSC5=O)sc34)c2O1)N1CCNCC1 [(R)-3-((7-(5-chloro-2-(piperazine-1-carbonyl)-2,3-dihydrobenzofuran-7-yl)thieno[3,2-b]pyridin-2-yl)methyl)thiazolidine-2,4-dione]
18 | 10000 to 30000 | N#Cc1ccc2nccc(-c3cc(Cl)cc4c3OC(C(=O)N3CCNCC3)C4)c2c1 (centres unmarked) [4-(5-chloro-2-(piperazine-1-carbonyl)-2,3-dihydrobenzofuran-7-yl)quinoline-6-carbonitrile]
19 | < 1000 | CC(C)N1CCc2noc([C@H]3Cc4cc(Cl)cc(-c5ccnc6ccsc56)c4O3)c2C1 [(R)-3-(5-chloro-7-(thieno[3,2-b]pyridin-7-yl)-2,3-dihydrobenzofuran-2-yl)-5-isopropyl-4,5,6,7-tetrahydroisoxazolo[4,3-c]pyridine]
20 | < 1000 | Cn1nc2c(c1[C@H]1Cc3cc(Cl)cc(-c4ccnc5cc(CO)sc45)c3O1)CC(N1CCC1)CC2 (stereo partly drawn) [(7-((2R)-2-(5-(azetidin-1-yl)-2-methyl-4,5,6,7-tetrahydro-2H-indazol-3-yl)-5-chloro-2,3-dihydrobenzofuran-7-yl)thieno[3,2-b]pyridin-2-yl)methanol]
21 | 10000 to 30000 | CNC(=O)c1cc2c(-c3cc(Cl)cc4c3OC(C(=O)N3CCNCC3)C4)ccnc2[nH]1 (centres unmarked) [4-(5-Chloro-2-(piperazine-1-carbonyl)-2,3-dihydrobenzofuran-7-yl)-N-methyl-1H-pyrrolo[2,3-b]pyridine-2-carboxamide]
22 | < 1000 | CCC(O)c1cc2ncnc(-c3cc(Cl)cc4c3O[C@@H](c3onc5c3CNCC5)C4)c2s1 (stereo partly drawn) [drawing 1579, 1-(4-((R)-5-chloro-2-(4,5,6,7-tetrahydroisoxazolo[4,3-c]pyridin-3-yl)-2,3-dihydrobenzofuran-7-yl)thieno[3,2-d]pyrimidin-6-yl)propan-1-ol]
23 | 1000 to 10000 | C[C@H]1CN(C(=O)C2Cc3cc(Cl)cc(-c4ccnc5[nH]ccc45)c3O2)CCN1 (stereo partly drawn) [(5-chloro-7-(1H-pyrrolo[2,3-b]pyridin-4-yl)-2,3-dihydrobenzofuran-2-yl)((S)-3-methylpiperazin-1-yl)methanone]
